Data: ChEMBL document CHEMBL1201862, “PubChem BioAssay data set” (2004)
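Five compound concentrations were applied to cells in 96-well plates for 48 hours; endpoints were derived by simple linear interpolation of the resulting dose-response curve. Abbreviation: GI50, concentration required for 50% inhibition of growth.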 The source made the active and inactive calls. Rule as the data show it: active = GI50 up to about 1.1 µM and inactive = higher.

How the values were obtained:
Test in all cases: DTP human tumour cell line panel, 48 h
[1] = tested on: MDA-MB-435
[2] = tested on: SW-620
[3] = tested on: SK-MEL-5
[4] = tested on: SNB-19
[5] = tested on: T47D
[6] = tested on: COLO 205
[7] = tested on: OVCAR-4
[8] = tested on: EKVX
[9] = tested on: A498
[10] = tested on: SK-MEL-28
[11] = tested on: OVCAR-8
[12] = tested on: OVCAR-5
[13] = tested on: MDA-MB-231
[14] = tested on: U-251
[15] = tested on: OVCAR-3
[16] = tested on: BT-549
[17] = tested on: UACC-257
[18] = tested on: NCI-H226
[19] = tested on: HCC 2998
[20] = tested on: RPMI-8226

Compound	GI50 [1]	GI50 [2]	GI50 [3]	GI50 [4]	GI50 [5]	GI50 [6]	GI50 [7]	GI50 [8]	GI50 [9]	GI50 [10]	GI50 [11]	GI50 [12]	GI50 [13]	GI50 [14]	GI50 [15]	GI50 [16]	GI50 [17]	GI50 [18]	GI50 [19]	GI50 [20]
Nc1ncnc2c1nc(Cl)n2C1OC(CO)C(O)C1O (stereo not given)	2.21 µM (inactive)	1.55 µM (inactive)	3.25 µM (inactive)	22.1 µM (inactive)	0.574 µM (active)	1.11 µM (active)	5.07 µM (inactive)	5.7 µM (inactive)	4.52 µM (inactive)	> 45.5 µM (inactive)	1.11 µM (active)	2.28 µM (inactive)	6.95 µM (inactive)	7.59 µM (inactive)	2.75 µM (inactive)	3.15 µM (inactive)	4.48 µM (inactive)	1.63 µM (inactive)	0.556 µM (active)	1.44 µM (inactive)
O=C1/C(=C\c2ccc([N+](=O)[O-])cc2)CS(=O)(=O)C/C1=C/c1ccc([N+](=O)[O-])cc1	0.358 µM (active)	0.262 µM (active)	1.4 µM (inactive)	3.24 µM (inactive)	0.962 µM (active)	0.188 µM (active)	0.342 µM (active)	1.21 µM (inactive)	1.79 µM (inactive)	1.13 µM (inactive)	0.107 µM (active)	1.36 µM (inactive)	0.193 µM (active)	0.298 µM (active)	0.141 µM (active)	0.316 µM (active)	1.81 µM (inactive)	2.83 µM (inactive)	0.247 µM (active)	0.0942 µM (active)
CC1=NN=C(C)C1/N=N/c1ccc2[nH]c(C)nc2c1	16.2 µM (inactive)	25.3 µM (inactive)	18.2 µM (inactive)	> 100 µM (inactive)	5.11 µM (inactive)	29.6 µM (inactive)	58.1 µM (inactive)	18.7 µM (inactive)	8.39 µM (inactive)	35.6 µM (inactive)	15.9 µM (inactive)	26.2 µM (inactive)	28.6 µM (inactive)	34.6 µM (inactive)	13.4 µM (inactive)	20.8 µM (inactive)	47.6 µM (inactive)	3.84 µM (inactive)	58.7 µM (inactive)	13.7 µM (inactive)
C[C@]12CC[C@H]3[C@@H](CC=C4C[C@@H](O)CC[C@@]43C)[C@@H]1CC[C@@H]2N(CCO)CCO	85.9 µM (inactive)	41.3 µM (inactive)	63.5 µM (inactive)	68.1 µM (inactive)	86.3 µM (inactive)	44.3 µM (inactive)	> 100 µM (inactive)	19.4 µM (inactive)	16.1 µM (inactive)	96.2 µM (inactive)	88.5 µM (inactive)	55.1 µM (inactive)	> 100 µM (inactive)	59.8 µM (inactive)	34.8 µM (inactive)	> 100 µM (inactive)	52.6 µM (inactive)	> 100 µM (inactive)	27 µM (inactive)	> 100 µM (inactive)
C=CCCCCOC1C=CC(OC(C)=O)C(COC(C)=O)O1 (stereo not given)	> 100 µM (inactive)	> 100 µM (inactive)	> 100 µM (inactive)	> 100 µM (inactive)	> 100 µM (inactive)	> 100 µM (inactive)	> 100 µM (inactive)	> 100 µM (inactive)	> 100 µM (inactive)	> 100 µM (inactive)	> 100 µM (inactive)	> 100 µM (inactive)	> 100 µM (inactive)	> 100 µM (inactive)	> 100 µM (inactive)	> 100 µM (inactive)	> 100 µM (inactive)	> 100 µM (inactive)	> 100 µM (inactive)	> 100 µM (inactive)
C(=N\NC1=NCCCN1)/c1ccc(-c2cn3cc(/C=N/NC4=NCCCN4)ccc3n2)cc1	> 100 µM (inactive)	> 100 µM (inactive)	> 100 µM (inactive)	> 100 µM (inactive)	> 100 µM (inactive)	> 100 µM (inactive)	> 100 µM (inactive)	45.9 µM (inactive)	> 41.7 µM (inactive)	> 100 µM (inactive)	> 50.2 µM (inactive)	> 100 µM (inactive)	> 72.6 µM (inactive)	> 88.9 µM (inactive)	> 100 µM (inactive)	> 100 µM (inactive)	> 100 µM (inactive)	45.3 µM (inactive)	> 53.3 µM (inactive)	> 27.9 µM (inactive)
NC1=NN(c2ccccc2)C2(O)c3ccncc3C3=NN(c4ccccc4)C(=O)C132 (stereo not given)	> 100 µM (inactive)	> 100 µM (inactive)	> 100 µM (inactive)	> 100 µM (inactive)	> 100 µM (inactive)	> 100 µM (inactive)	51.2 µM (inactive)	> 100 µM (inactive)	> 100 µM (inactive)	> 100 µM (inactive)	> 100 µM (inactive)	> 100 µM (inactive)	> 100 µM (inactive)	> 100 µM (inactive)	> 100 µM (inactive)	> 100 µM (inactive)	> 100 µM (inactive)	> 100 µM (inactive)	> 100 µM (inactive)	> 100 µM (inactive)
